We go through six compounds from patent US10428014B2, “Base generator, base-reactive composition containing said base generator, and base generation method” (FUJIFILM Wako Pure Chemical Corporation, priority 2013, dated 2019).

A short description of series [1]: Heat resistance test (TG-DTA, initiation temperature of 5% weight decrease). It counts as physicochemical. The settings on record: 10 mg, 30° C. to 500° C., 10° C./min.
A short description of series [2]: Exposure curing test using bisphenol A-type diglycidyl ether. The settings on record: 10 mg compound, 100 mg jER 828, 50 mg KarenzMT PE1.

In the case of “1,2-dicyclohexyl-4,4,5,5-tetramethylbiguanidium 2-(9-oxoxanthene-2-yl)propionate [formula (4)]”, the Decomposition initiation temperature in series [1] was 199 °C.
Still for that read-out and setting: the result for “1,2-diisopropyl-4,4,5,5-tetramethylbiguanidium N-phthaloylglycine [formula (8)]” reads 206 °C.
The same measure, in the same setting: the result for “1,2-dicyclohexyl-4,4,5,5-tetramethylbiguanidium 8(7H)-ethylidene-4-methoxy-5,6-dihydronaphthalene-1-carboxylate [formula (6)]” reads 205 °C.
Same read-out and setting: for “1,2-diisopropyl-4,4,5,5-tetramethylbiguanidium 2-(9-oxoxanthene-2-yl)propionate [formula (7)]” the value was 200 °C; for “1,2-diisopropyl-4,4,5,5-tetramethylbiguanidium 8(7H)-ethylidene-4-methoxy-5,6-dihydronaphthalene-1-carboxylate [formula (5)]”, 204 °C.
In series [1], `CC(C(=O)O)c1cccc(C(=O)c2ccccc2)c1` (stereo not shown) [formula (101), guanidium 2-(3-benzoylphenyl)propionate, reference compound] returned a Decomposition initiation temperature of 161 °C. Besides, the “Dissolution into the mixed solution of the bisphenol A-type diglycidyl ether oligomer and pentaerythritol tetrakis(3-mercaptobutyrate)” value in series [2] is “did not dissolve”.
